Here are results for 15 compounds from patent US20250320189A1, “NEW DERIVATIVES FOR TREATING TRPM3 MEDIATED DISORDERS” (Katholieke Universiteit Leuven, priority 2022, published 2025).

For the assay, the target named is T1, mouse TRPM3α2 (mTRPM3) ion channel (Mus musculus, UniProt J9SQF3).
T1 construct: expressed in transfected cells; host or cells: flip-in (Flp-In) HEK293
T1 sequence (J9SQF3 1-1709 isoform J9SQF3-12): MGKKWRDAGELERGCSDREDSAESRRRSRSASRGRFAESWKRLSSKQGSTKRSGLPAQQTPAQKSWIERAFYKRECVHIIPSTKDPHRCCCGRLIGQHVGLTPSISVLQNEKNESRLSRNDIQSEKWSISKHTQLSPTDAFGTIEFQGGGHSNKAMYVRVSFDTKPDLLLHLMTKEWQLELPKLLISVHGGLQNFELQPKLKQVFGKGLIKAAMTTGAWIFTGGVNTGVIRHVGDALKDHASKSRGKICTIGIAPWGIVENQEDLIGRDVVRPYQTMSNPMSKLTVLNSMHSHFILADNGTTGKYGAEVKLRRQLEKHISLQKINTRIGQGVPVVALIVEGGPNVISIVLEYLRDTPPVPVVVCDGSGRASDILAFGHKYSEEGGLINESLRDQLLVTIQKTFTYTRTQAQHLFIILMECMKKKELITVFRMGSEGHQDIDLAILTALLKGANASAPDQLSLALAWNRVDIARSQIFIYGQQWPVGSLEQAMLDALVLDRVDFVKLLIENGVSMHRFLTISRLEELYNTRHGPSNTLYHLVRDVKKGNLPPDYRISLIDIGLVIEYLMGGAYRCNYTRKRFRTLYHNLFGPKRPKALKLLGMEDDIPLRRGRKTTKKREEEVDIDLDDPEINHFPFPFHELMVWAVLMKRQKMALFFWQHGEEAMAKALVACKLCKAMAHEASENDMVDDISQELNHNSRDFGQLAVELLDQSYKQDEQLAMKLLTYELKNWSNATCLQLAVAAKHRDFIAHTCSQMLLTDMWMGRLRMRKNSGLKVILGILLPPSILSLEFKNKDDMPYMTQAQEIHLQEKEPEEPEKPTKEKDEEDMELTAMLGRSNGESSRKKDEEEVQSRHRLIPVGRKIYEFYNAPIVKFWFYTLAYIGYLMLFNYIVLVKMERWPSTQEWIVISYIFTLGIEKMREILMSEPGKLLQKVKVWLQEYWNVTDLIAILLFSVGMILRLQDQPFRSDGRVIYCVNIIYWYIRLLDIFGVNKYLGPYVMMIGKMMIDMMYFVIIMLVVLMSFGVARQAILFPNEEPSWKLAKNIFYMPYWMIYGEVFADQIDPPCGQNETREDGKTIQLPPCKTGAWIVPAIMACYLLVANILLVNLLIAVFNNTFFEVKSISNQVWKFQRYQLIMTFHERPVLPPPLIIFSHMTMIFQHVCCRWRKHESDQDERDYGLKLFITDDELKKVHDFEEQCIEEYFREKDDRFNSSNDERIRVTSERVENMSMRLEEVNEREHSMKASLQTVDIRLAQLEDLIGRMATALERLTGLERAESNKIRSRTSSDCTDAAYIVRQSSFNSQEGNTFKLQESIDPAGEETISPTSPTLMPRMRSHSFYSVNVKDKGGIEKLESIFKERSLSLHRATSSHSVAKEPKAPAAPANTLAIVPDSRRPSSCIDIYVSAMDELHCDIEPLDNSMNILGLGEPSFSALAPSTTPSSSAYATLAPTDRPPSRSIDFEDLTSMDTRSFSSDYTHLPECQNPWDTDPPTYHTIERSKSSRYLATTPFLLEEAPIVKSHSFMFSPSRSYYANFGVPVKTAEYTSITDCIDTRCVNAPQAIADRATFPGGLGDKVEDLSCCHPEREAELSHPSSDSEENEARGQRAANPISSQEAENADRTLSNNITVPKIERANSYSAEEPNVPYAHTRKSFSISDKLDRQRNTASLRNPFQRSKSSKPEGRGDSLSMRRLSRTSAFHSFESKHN
Description: Monitoring the TRPM3 ion channel driven Ca2+ uptake (Fluo-4 AM assay). The note with it: mTRPM3alpha2 overexpressing flip-in HEK293 cells, stimulated with Pregnenolone sulfate (PS) 50 μM. The class given is cell-based. The gist of the method:
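Flp-In HEK293 cells overexpressing mTRPM3α2 were loaded with Fluo-4 AM and added to plates holding compound plus 50 μM pregnenolone sulfate in Ca²⁺-containing Krebs buffer. Fluorescence (ex 485/em 535) was read right after cell addition. Inhibition was calculated against vehicle-stimulated and positive-control-inhibitor wells, with IC50 derived from it.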
For `NC(=O)[C@H](CO)NC(=O)c1c(C2CC2)oc2ccc(OCC3CC3)cc12` [Cpd 004, (2S)-2-{[2-cyclopropyl-5-(cyclopropylmethoxy)-1-benzofuran-3-yl]formamido}-3-hydroxypropanamide], the IC50 was less than 1000 nM.

The compound `Cc1oc2ccc(OCCC3CC3)cc2c1C(=O)N[C@@H](CO)C(N)=O` [Cpd 005, (2S)-2-{[5-(2-cyclopropylethoxy)-2-methyl-1-benzofuran-3-yl]formamido}-3-hydroxypropanamide] showed an IC50 of less than 1000 nM.

In the case of `Cc1oc2ccc(OCC3CCC3)cc2c1C(=O)N[C@@H](CO)C(N)=O` [Cpd 006, (2S)-2-{[5-(cyclobutylmethoxy)-2-methyl-1-benzofuran-3-yl]formamido}-3-hydroxypropanamide], the IC50 is less than 1000 nM.

Consider `Cc1oc2ccc(OCC3CCC3)cc2c1C(=O)N[C@@H](C)C(N)=O` [Cpd 007, (2S)-2-{[5-(cyclobutylmethoxy)-2-methyl-1-benzofuran-3-yl]formamido}propanamide], for which the IC50 was less than 1000 nM.

`NC(=O)[C@H](CO)NC(=O)c1c(C(F)F)oc2ccc(OCC3CC3)cc12` [Cpd 008, (2S)-2-{[5-(cyclopropylmethoxy)-2-(difluoromethyl)-1-benzofuran-3-yl]formamido}-3-hydroxypropanamide]: the IC50 is less than 1000 nM.

In turn, `Cc1oc2ccc(OCC3CC3)cc2c1C(=O)N[C@H](CO)C(N)=O` [Cpd 009, (2R)-2-{[5-(cyclopropylmethoxy)-2-methyl-1-benzofuran-3-yl]formamido}-3-hydroxypropanamide] displayed an IC50 of less than 1000 nM.

Take `Cc1oc2ccc(OCC3CC3)cc2c1C(=O)N[C@@H](C)C(N)=O` [Cpd 010, (2S)-2-{[5-(cyclopropylmethoxy)-2-methyl-1-benzofuran-3-yl]formamido}propanamide]: the IC50 was less than 1000 nM.

`Cc1oc2ccc(OCC3(C(F)F)CC3)cc2c1C(=O)N[C@H](C(N)=O)[C@@H](C)O` [Cpd 011, (2S,3R)-2-[(5-{[1-(difluoromethyl)cyclopropyl]methoxy}-2-methyl-1-benzofuran-3-yl)formamido]-3-hydroxybutanamide]: the IC50 is less than 1000 nM.

For `Cc1oc2ccc(OCCC3CC3)cc2c1C(=O)N[C@H](C(N)=O)[C@@H](C)O` [Cpd 012, (2S,3R)-2-{[5-(2-cyclopropylethoxy)-2-methyl-1-benzofuran-3-yl]formamido}-3-hydroxybutanamide], the IC50 is less than 1000 nM.

The compound `Cc1oc2ccc(OCC3CCCC3(F)F)cc2c1C(=O)NC(CO)C(N)=O` (stereo not drawn) [Cpd 013, 2-({5-[(2,2-difluorocyclopentyl)methoxy]-2-methyl-1-benzofuran-3-yl}formamido)-3-hydroxypropanamide] showed a 50% inhibitory concentration (IC50) of less than 1000 nM.

With `Cc1oc2ccc(OCC3CCC3)cc2c1C(=O)NC(C)(C)C(N)=O` [Cpd 015, 2-{[5-(cyclobutylmethoxy)-2-methyl-1-benzofuran-3-yl]formamido}-2-methylpropanamide], the IC50 was less than 1000 nM.

On to `Cc1oc2ccc(OCC3CC3)cc2c1C(=O)NC(C)(C)C(N)=O` [Cpd 016, 2-{[5-(cyclopropylmethoxy)-2-methyl-1-benzofuran-3-yl]formamido}-2-methylpropanamide], for which the IC50 was less than 1000 nM.

The compound `Cc1oc2ccc(OCC3CCC3)cc2c1C(=O)NC(C)(CO)CO` [Cpd 018, 5-(cyclobutylmethoxy)-N-(1,3-dihydroxy-2-methylpropan-2-yl)-2-methyl-1-benzofuran-3-carboxamide] showed an IC50 of less than 1000 nM.

In turn, `Cc1oc2ccc(OCC3CCCCC3)cc2c1C(=O)NC1CCN(C)CC1` [Cpd 020, 5-(cyclohexylmethoxy)-2-methyl-N-(1-methylpiperidin-4-yl)-1-benzofuran-3-carboxamide] displayed an IC50 greater than 20000 nM.

In turn, `Cc1oc2ccc(OCC3CC3)cc2c1C(=O)NC1CCN(C)CC1` [Cpd 021, 5-(cyclopropylmethoxy)-2-methyl-N-(1-methylpiperidin-4-yl)-1-benzofuran-3-carboxamide] gave an IC50 of 1000 to 20000 nM.

For orientation: IC50 means the midpoint of a concentration-inhibition curve. A high value points to weaker potency in that assay.
